Measurements as given in patent US20180282605A1, “METHOD OF MONITORING A PARAMETER OF A HYDROCARBON WELL, PIPELINE OR FORMATION” (JOHNSON MATTHEY PUBLIC LIMITHED COMPANY, priority 2015, published 2018).

Assay: log P (octanol/water) of tracer anions
Type: physicochemical
Conditions: log of ratio of equilibrium concentration in oil (octanol) to that in water, representative example values
Source text: The invention concerns the use of halogenated thiophene carboxylic acids or halogenated thiophene sulfonic acids, or salts of either, in tracing applications in hydrocarbon wells. Such compounds are not naturally found in hydrocarbon wells and formations and have not been previously used as tracers in such wells and formations. Tracers comprising such compounds may therefore be used as tracers in such wells and formations without the results of the tracing being affected by contamination. Moreover, the applicant has determined that non-halogenated thiophene compounds exist naturally in hydrocarbon formations and the compounds of the invention are therefore expected to be sufficiently stable, for example to have sufficient thermal stability, to survive the conditions in a hydrocarbon well. Since, unlike the naturally occurring thiophene compounds, the compounds of formula 1 are halogenated they are advantageously also detectable, for example using GC-MS, in very low concentrations, for example concentrations of 1 ppb or less, preferably concentrations of 100 ppt or less, more preferably concentrations of 10 ppt or less and yet more preferably concentrations of 1 ppt or less. The compounds of the invention may also show a high selectivity towards water instead of oil. Thus the tracer may be a water tracer. […] The log P value is a well-known value for characterising the preference of a compound for water or oil. The value is the log of the ratio of the equilibrium concentration of the compound in oil (octanol) to the equilibrium concentration of the compound in water. Thus the concentration of the compound in water is preferably at least 10 times, and more preferably at least 100 times, that of the compound in oil. It may be that the salt of the compound (or the anion of the salt) is more soluble in water than the acid. For that reason, it is preferable to use the salt as the tracer.

logP | SMILES
-1.35 | O=C(O)c1csc(Cl)c1
-1.16 | Cc1cc(C(=O)O)sc1F
-1.81 | O=C(O)c1csc(F)c1
